ChEMBL document CHEMBL3596105, “Phospholipid derivatives of cladribine and fludarabine: synthesis and biological properties” (Bioorg Med Chem, 2015)

Columns and labels:
MCF7 [1] = assay: Antiproliferative activity against human MCF7 cells assessed as cell growth inhibition after 48 hrs by MTT assay; type: functional, cell-based; conditions: MCF7, 48 h
K562 [2] = assay: Antiproliferative activity against human K562 cells assessed as cell growth inhibition after 48 hrs by MTT assay; type: functional, cell-based; conditions: K562, 48 h
[3] = Antiproliferative activity against human MOLT3 cells assessed as cell growth inhibition after 48 hrs by MTT assay; type: functional, cell-based; conditions: MOLT-3, 48 h
[4] = Antiproliferative activity against human SKHEP1 cells assessed as cell growth inhibition after 48 hrs by MTT assay; type: functional, cell-based; conditions: SK-HEP1, 48 h
[5] = Antiproliferative activity against human KG1 cells assessed as cell growth inhibition after 48 hrs by MTT assay; type: functional, cell-based; conditions: KG-1, 48 h
ZR-75-1 [6] = assay: Antiproliferative activity against human ZR-75-1 cells assessed as cell growth inhibition after 48 hrs by MTT assay; type: functional, cell-based; conditions: ZR-75-1, 48 h
[7] = Antiproliferative activity against human SK-UT-1B cells assessed as cell growth inhibition after 48 hrs by MTT assay; type: functional, cell-based; conditions: Skut1B
[8] = Antiproliferative activity against human RPMI8226 cells assessed as cell growth inhibition after 48 hrs by MTT assay; type: functional, cell-based; conditions: RPMI-8226, 48 h
Mus musculus [9] = assay: Cmin in ICR mouse assessed as F-ara-A concentration at 120.4 mg/kg, ig administered as single dose after 24 hrs by HPLC analysis; type: ADME, organism-based; conditions: in vivo, po
[10] = Antiproliferative activity against human KG1 cells assessed as cell growth inhibition after 72 hrs by MTT assay; type: functional, cell-based; conditions: KG-1, 72 h
Mus musculus [11] = assay: Tmax in ICR mouse assessed as F-ara-A concentration at 120.4 mg/kg, ig administered as single dose by HPLC analysis; type: ADME, organism-based; conditions: in vivo, po
HL-60 [12] = assay: Antiproliferative activity against human HL60 cells assessed as cell growth inhibition after 72 hrs by MTT assay; type: functional, cell-based; conditions: HL-60, 72 h
MCF7 [13] = assay: Antiproliferative activity against human MCF7 cells assessed as cell growth inhibition after 72 hrs by MTT assay; type: functional, cell-based; conditions: MCF7, 72 h
Mus musculus [14] = assay: Apparent half-life in ICR mouse assessed as F-ara-A content at 120.4 mg/kg, ig administered as single dose by HPLC analysis; type: ADME, organism-based; conditions: in vivo, po
[15] = Antiproliferative activity against human M-HeLa cells assessed as cell growth inhibition after 48 hrs by MTT assay; type: functional, cell-based
Rattus norvegicus [16] = assay: Prodrug conversion in Wistar rat assessed as slow F-ara-A release into bloodstream at 72 mg/kg, ig administered as single dose by HPLC analysis; type: ADME, organism-based; conditions: in vivo, po
Rattus norvegicus [17] = assay: Prodrug conversion in Wistar rat assessed as smooth increase in F-ara-A concentration in serum at 72 mg/kg, ig administered as single dose by HPLC analysis; type: ADME, organism-based; conditions: in vivo, po
K562 [18] = assay: Antiproliferative activity against human K562 cells assessed as cell growth inhibition after 72 hrs by MTT assay; type: functional, cell-based; conditions: K562, 72 h
Raji = assay: Antiproliferative activity against human Raji cells assessed as cell growth inhibition after 48 hrs by MTT assay; type: functional, cell-based
Rattus norvegicus [19] = assay: Prodrug conversion in Wistar rat assessed as prolonged serum circulation of liberated F-ara-A at 72 mg/kg, ig administered as single dose by HPLC analysis; type: ADME, organism-based; conditions: in vivo, po
Mus musculus [20] = assay: Cmax in ICR mouse assessed as F-ara-A concentration at 120.4 mg/kg, ig administered as single dose by HPLC analysis; type: ADME, organism-based; set-up: dose 120.4 mg/kg, route intragastric; conditions: in vivo, po
HL-60 [21] = assay: Antiproliferative activity against human HL60 cells assessed as cell growth inhibition after 48 hrs by MTT assay; type: functional, cell-based; conditions: HL-60, 48 h
Rattus norvegicus [22] = assay: Prodrug conversion in Wistar rat assessed as prolonged serum circulation of liberated F-ara-A at 77 mg/kg, ig administered as single dose by HPLC analysis; type: ADME, organism-based; conditions: in vivo, po
Rattus norvegicus [23] = assay: Prodrug conversion in Wistar rat assessed as smooth increase in F-ara-A concentration in serum at 77 mg/kg, ig administered as single dose by HPLC analysis; type: ADME, organism-based; conditions: in vivo, po
Rattus norvegicus [24] = assay: Prodrug conversion in Wistar rat assessed as slow F-ara-A release into bloodstream at 77 mg/kg, ig administered as single dose by HPLC analysis; type: ADME, organism-based; conditions: in vivo, po
[25] = Antiproliferative activity against human SK-UT-1B cells assessed as cell growth inhibition after 72 hrs by MTT assay; type: functional, cell-based; conditions: Skut1B
[26] = Antiproliferative activity against human M-HeLa cells assessed as cell growth inhibition after 72 hrs by MTT assay; type: functional, cell-based
ZR-75-1 [27] = assay: Antiproliferative activity against human ZR-75-1 cells assessed as cell growth inhibition after 72 hrs by MTT assay; type: functional, cell-based; conditions: ZR-75-1, 72 h
Mus musculus [28] = assay: Apparent half-life in ICR mouse assessed as F-ara-A content at 50 mg/kg, ig administered as single dose by HPLC analysis; type: ADME, organism-based; conditions: in vivo, po
Mus musculus [29] = assay: Tmax in ICR mouse assessed as F-ara-A concentration at 50 mg/kg, ig administered as single dose by HPLC analysis; type: ADME, organism-based; conditions: in vivo, po
Mus musculus [30] = assay: Cmax in ICR mouse assessed as F-ara-A concentration at 50 mg/kg, ig administered as single dose by HPLC analysis; type: ADME, organism-based; set-up: dose 50 mg/kg, route intragastric; conditions: in vivo, po
Mus musculus [31] = assay: Cmin in ICR mouse assessed as F-ara-A concentration at 50 mg/kg, ig administered as single dose after 24 hrs by HPLC analysis; type: ADME, organism-based; conditions: in vivo, po

SMILES | IC50 (MCF7 [1]) | IC50 (K562 [2]) | IC50 [3] | IC50 [5] | IC50 (ZR-75-1 [6]) | IC50 [7] | IC50 [10] | IC50 [15] | IC50 (Raji) | IC50 (HL-60 [21]) | other results
CCCCCCCCCCCCCCCC(=O)OCC(COC(=O)CCCCCCCCCCCCCCC)OP(=O)(O)OC[C@H]1O[C@@H](n2cnc3c(N)nc(Cl)nc32)C[C@@H]1O | > 100 µM | > 100 µM | > 100 µM |  |  |  |  |  |  |  | 
CCCCCCCCCCCCCC(=O)OCC(COP(=O)(O)OC[C@H]1O[C@@H](n2cnc3c(N)nc(Cl)nc32)C[C@@H]1O)OC(=O)CCCCCCCCCCCCC (some centres not stated) | > 100 µM | 50 µM | 8 µM | 17 µM | > 100 µM | > 100 µM |  |  |  |  | IC50 [4]: > 100 µM; IC50 [8]: > 100 µM
CCCCCCCCCCCCCCCC(=O)OCC(COP(=O)(O)OC[C@H]1O[C@@H](n2cnc3c(N)nc(Cl)nc32)C[C@@H]1O)OC(=O)CCCCCCCCCCCCCCC (some centres not stated) | > 100 µM | > 100 µM | > 100 µM |  |  |  |  |  |  |  | 
CCCCCCCCCCCCCC(=O)OCC(COC(=O)CCCCCCCCCCCCC)OP(=O)(O)OC[C@H]1O[C@@H](n2cnc3c(N)nc(Cl)nc32)C[C@@H]1O | > 100 µM | > 100 µM | > 100 µM |  |  |  |  |  |  |  | 
CCCCCCCCCCCCCC(=O)OCC(COP(=O)([O-])OC[C@H]1O[C@@H](n2cnc3c(N)nc(F)nc32)[C@@H](O)[C@@H]1O)OC(=O)CCCCCCCCCCCCC.[Na+] (some centres not stated) | 45 µM | 45 µM | > 100 µM | 55 µM | > 100 µM | > 100 µM | 9 µM | > 100 µM | > 100 µM | 30 µM | Cmin (Mus musculus [9]): 199 ng/mL; Tmax (Mus musculus [11]): 2.8 h; IC50 (HL-60 [12]): 16 µM; IC50 (MCF7 [13]): 18 µM; t1/2(app) (Mus musculus [14]): 14.2 h; Drug metabolism (Rattus norvegicus [16]): metabolite_detected; Drug metabolism (Rattus norvegicus [17]): metabolite_detected; IC50 (K562 [18]): > 100 µM; Drug metabolism (Rattus norvegicus [19]): metabolite_detected; Cmax (Mus musculus [20]): 1613 ng/mL
CCCCCCCCCCCCCCCC(=O)OCC(COP(=O)([O-])OC[C@H]1O[C@@H](n2cnc3c(N)nc(F)nc32)[C@@H](O)[C@@H]1O)OC(=O)CCCCCCCCCCCCCCC.[Na+] (some centres not stated) | > 100 µM | > 100 µM | > 100 µM | > 100 µM | > 100 µM | > 100 µM | 75 µM | > 100 µM | > 100 µM | > 100 µM | Drug metabolism (Rattus norvegicus [22]): metabolite_detected; Drug metabolism (Rattus norvegicus [23]): metabolite_detected; Drug metabolism (Rattus norvegicus [24]): metabolite_detected
CCCCCCCCCCCCCC(=O)OCC(COC(=O)CCCCCCCCCCCCC)OP(=O)([O-])OC[C@H]1O[C@@H](n2cnc3c(N)nc(F)nc32)[C@@H](O)[C@@H]1O.[Na+] | > 100 µM | 75 µM | > 100 µM | > 100 µM | > 100 µM | > 100 µM | 35 µM | > 100 µM | > 100 µM | 80 µM | IC50 (HL-60 [12]): 65 µM; IC50 (MCF7 [13]): 45 µM; IC50 [25]: 55 µM; Drug metabolism (Rattus norvegicus [16]): metabolite_detected; IC50 [26]: 45 µM; Drug metabolism (Rattus norvegicus [17]): metabolite_detected; IC50 (K562 [18]): > 100 µM; Drug metabolism (Rattus norvegicus [19]): metabolite_detected; IC50 (ZR-75-1 [27]): 75 µM
CCCCCCCCCCCCCCCC(=O)OCC(COC(=O)CCCCCCCCCCCCCCC)OP(=O)([O-])OC[C@H]1O[C@@H](n2cnc3c(N)nc(F)nc32)[C@@H](O)[C@@H]1O.[Na+] | > 100 µM | > 100 µM | > 100 µM | > 100 µM | > 100 µM | > 100 µM |  | > 100 µM | > 100 µM | > 100 µM | Drug metabolism (Rattus norvegicus [22]): metabolite_detected; Drug metabolism (Rattus norvegicus [23]): metabolite_detected; Drug metabolism (Rattus norvegicus [24]): metabolite_detected
Nc1nc(Cl)nc2c1ncn2[C@H]1C[C@H](O)[C@@H](CO)O1 [CLADRIBINE] | 45 µM | 10 µM | 2.3 µM | 0.2 µM | > 100 µM | 1 µM |  |  |  |  | IC50 [4]: 4 µM; IC50 [8]: 6 µM
Nc1nc(F)nc2c1ncn2[C@@H]1O[C@H](COP(=O)(O)O)[C@@H](O)[C@@H]1O [FLUDARABINE PHOSPHATE] | 0.13 µM | 0.4 µM | 0.95 µM | 0.15 µM | 0.6 µM | 6 µM |  | 2 µM | 0.4 µM | 0.09 µM | t1/2(app) (Mus musculus [28]): 1.5 h; Tmax (Mus musculus [29]): 0.9 h; Cmax (Mus musculus [30]): 8989 ng/mL; Cmin (Mus musculus [31]): 13 ng/mL
